Assay results from PMC6389962 (Nature Communications, 2019).
Where two headings read alike, the source gives them in different places. Starred links: 1 amine or outer side, 2 acyl side, 3 side chain; linkers in the order of their positions; H or OH if unused. Positions of bridges follow the written chain, without caps; N, C: chain ends. Residues, ends and D or L forms follow the SMILES beside them. Chains are numbered I, II in the order given. X4 = C[C@@H](CNC(=O)N[C@@H](C)CNC(=O)[*:2])NC(=O)NC[C@H](CCC(=O)O)N[*:1]

Tests used:
[1] = test system: normal mice (C57BL/6J); assay: Blood glucose study in normal fed mice; assay type: in vivo, mouse; design: key to In vivo activity (indicator): + active; +++: + + + more active; settings: for effect on blood glucose concentration: normal fed C57BL/6J mice, n = 3, 5 μg per mouse (50 nmol kg−1) i.v., monitored 6 h
Procedure: In the first study, we evaluated the effect of the analogues on the blood glucose concentration of normal mice (Fig. 3). The fed mice were treated with the analogues and their blood glucose concentration was monitored before and after dosing for 6 h. […] Indeed, a decrease of blood glucose concentration is observed after 30 min and the effect is preserved for 4 h after dosing.
Fig. 3 Blood glucose study in mice. a–c Blood glucose concentration in normal mice (C57BL/6J, male, 20–25 g, n = 3) before and after dosing: 5 μg per mouse (50 nmol kg^−1) i.v. Formulation: 20 μg mL^−1 in PBS 1×. The dosing was done at T0. Data are mean ± SEM. […] Source data are provided as a Source Data file
After the acclimation period (at least 5 days), mice (male C57BL/6J mice (Charles River laboratories) 8 weeks old, 20–25 g) were randomized into 10 groups (n = 3 per group) according to their body weight. They were acutely treated via i.v. route at 10 am (5 µg per mouse). Blood glucose was measured before dosing and at 30 min, 1, 2, 4, 6 h after dosing in fed conditions.

[2] = target: T1, mouse GLP-1 receptor (Mus musculus, UniProt O35659); settings: for Potency (%), percentage of potency compare to GLP-1-G^2: cAMP production, from EC50
T1 sequence (O35659 22-463): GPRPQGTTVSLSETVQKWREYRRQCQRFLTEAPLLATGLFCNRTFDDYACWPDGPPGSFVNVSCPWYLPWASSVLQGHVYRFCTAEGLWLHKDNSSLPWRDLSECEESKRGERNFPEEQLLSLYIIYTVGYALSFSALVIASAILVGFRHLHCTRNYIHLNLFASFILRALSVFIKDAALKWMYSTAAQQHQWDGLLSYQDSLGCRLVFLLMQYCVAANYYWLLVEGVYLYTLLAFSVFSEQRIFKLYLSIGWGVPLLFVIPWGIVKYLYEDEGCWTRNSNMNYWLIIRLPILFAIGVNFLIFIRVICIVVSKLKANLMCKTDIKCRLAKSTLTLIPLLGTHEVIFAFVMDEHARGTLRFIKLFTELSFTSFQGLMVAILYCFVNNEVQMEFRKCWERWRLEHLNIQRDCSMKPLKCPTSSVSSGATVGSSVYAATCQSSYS

[3] = target: T1, mouse GLP-1 receptor; assay: cell-based; settings: for Emax: 14: experiment 1
[4] = in vitro; settings: mouse, plasma, pH 7.4, % remaining analogue
Procedure: The oligomer was then diluted 1/50 with a solution of plasma/PBS pH 7.4 (1:1) to afford a final concentration of 5 µM and incubated at 37 °C (4 µL of the stock solution was diluted with 196 µL of plasma/PBS, pH 7.4, 1:1). Each compound was also incubated in the absence of plasma (196 µL of H2O/PBS, pH 7.4, 1:1). At the indicated time (20 min and 60 min) an aliquot of 70 µL was removed from each experimental reaction and pipetting into 175 µL of acetonitrile at 0 °C to quench the reaction (t = 0 min was determined using the reaction without plasma). The samples were frozen at –80 °C before analysis. The frozen samples were defrosted, stirred with a vortex 5 min and finally centrifuged 5 min at 16 °C (1500 × g). The supernatant was analysed by LC-MS. The time course of oligomer degradation was determined by integrating the area of the peak in the extracted ion chromatogram.
Supplementar y Figur e 2 : Mouse plasma degradation assay. […] Data are
mean ± SEM, n = 4. Source data are provided as a Source Data file (T able 2 tab).
Supplementar y Figur e 3.
Data are mean ± SEM, n = 3.
Source data are provided as a Source Data file […]

Row | Compound | In vivo activity (indicator) ([1]; mice, 50 nmol kg−1 i.v.) | effect on blood glucose concentration [1] | LogEC50 (best-fit value) [2] | Potency (%), percentage of potency compare to GLP-1-G^2 [2] [%] | EC50 [3] [nM] | Emax ([3]; read-out: Top (best-fit value), variable slope four-parameter fit, unconstrained) [%] | remaining at 20 min, 5 µM [4] [%] | remaining at 1 h, 5 µM [4] [%] | Emax ([3]; read-out: Top (best-fit value), fit with BOTTOM = 0%) [%]
1 | CC[C@H](C)[C@H](NC(=O)[C@H](Cc1ccccc1)NC(=O)[C@H](CCC(=O)O)NC(=O)[C@H](CCCCN)NC(=O)[C@H](C)NC(=O)[C@H](C)NC(=O)[C@H](CCC(N)=O)NC(=O)CNC(=O)[C@H](CCC(=O)O)NC(=O)NC[C@H](C)NC(=O)NC[C@H](Cc1ccc(O)cc1)NC(=O)NC[C@H](C)NC(=O)[C@@H](NC(=O)[C@H](CC(=O)O)NC(=O)[C@H](CO)NC(=O)[C@@H](NC(=O)[C@H](Cc1ccccc1)NC(=O)[C@@H](NC(=O)CNC(=O)[C@H](CCC(=O)O)NC(=O)CNC(=O)[C@@H](N)Cc1c[nH]cn1)[C@@H](C)O)[C@@H](C)O)C(C)C)C(=O)N[C@@H](C)C(=O)N[C@@H](Cc1c[nH]c2ccccc12)C(=O)N[C@@H](CC(C)C)C(=O)N[C@H](C(=O)N[C@@H](CCCCN)C(=O)NCC(=O)N[C@@H](CCCNC(=N)N)C(=O)NCC(N)=O)C(C)C [compound 5, GG2[A^uY^uA^u]^11-14] | + | showed efficacy but no improvement | -8.806 | 15 | 1.6 | 89.4 | 55 | 33.6 | –
2 | CC[C@H](C)[C@H](NC(=O)[C@H](Cc1ccccc1)NC(=O)[C@H](CCC(=O)O)NC(=O)[C@H](CCCCN)NC(=O)[C@H](C)NC(=O)NC[C@H](C)NC(=O)NC[C@H](C)NC(=O)NC[C@H](CCC(=O)O)NC(=O)[C@H](CC(C)C)NC(=O)[C@H](Cc1ccc(O)cc1)NC(=O)[C@H](CO)NC(=O)[C@H](CO)NC(=O)[C@@H](NC(=O)[C@H](CC(=O)O)NC(=O)[C@H](CO)NC(=O)[C@@H](NC(=O)[C@H](Cc1ccccc1)NC(=O)[C@@H](NC(=O)CNC(=O)[C@H](CCC(=O)O)NC(=O)CNC(=O)[C@@H](N)Cc1c[nH]cn1)[C@@H](C)O)[C@@H](C)O)C(C)C)C(=O)N[C@@H](C)C(=O)N[C@@H](Cc1c[nH]c2ccccc12)C(=O)N[C@@H](CC(C)C)C(=O)N[C@H](C(=O)N[C@@H](CCCCN)C(=O)NCC(=O)N[C@@H](CCCNC(=N)N)C(=O)NCC(N)=O)C(C)C [compound 11, GG2[E^uA^uA^u]^15-18] (I: H-HGEGTFTSDVSSYL / II: AKEFIAWLVKGRG-NH2; linker I:C-II:N via X4) | – | – | -8.721 | 13 | – | – | 44.7 | 31.1 | –
3 | CC[C@H](C)[C@@H](CNC(=O)N[C@@H](C)CNC(=O)N[C@@H](CC(C)C)C(=O)N[C@H](C(=O)N[C@@H](CCCCN)C(=O)NCC(=O)N[C@@H](CCCNC(=N)N)C(=O)NCC(N)=O)C(C)C)NC(=O)N[C@@H](CNC(=O)[C@H](CCC(=O)O)NC(=O)[C@H](CCCCN)NC(=O)[C@H](C)NC(=O)[C@H](C)NC(=O)[C@H](CCC(N)=O)NC(=O)CNC(=O)[C@H](CCC(=O)O)NC(=O)[C@H](CC(C)C)NC(=O)[C@H](Cc1ccc(O)cc1)NC(=O)[C@H](CO)NC(=O)[C@H](CO)NC(=O)[C@@H](NC(=O)[C@H](CC(=O)O)NC(=O)[C@H](CO)NC(=O)[C@@H](NC(=O)[C@H](Cc1ccccc1)NC(=O)[C@@H](NC(=O)CNC(=O)[C@H](CCC(=O)O)NC(=O)CNC(=O)[C@@H](N)Cc1c[nH]cn1)[C@@H](C)O)[C@@H](C)O)C(C)C)Cc1ccccc1 [compound 16, GG2[F^uαf^uA^u]^22-25] | – | showed no activity | – | 0.4 | 62 | – | – | 41.6 | 228
